Laboratory results taken from article PMC3056842 (Malaria Journal, 2011).
Values joined by “and” are separate entries in the source; they are usually repeats but may differ in a detail not shown here. Equal values may be shown once. “Also recorded” adds a separate entry of the source. One block for each compound: values may come before it.

Experiments:
clinical = settings: for CL/F: DHA CL/F; for fraction unbound: DHA FF (free fraction); for Tmax: DHA Tmax; for half-life: DHA T½; for Vd/F: DHA Vd/F
Protocol: The four tablets were given orally with 240 mL water under medical supervision. A catheter was inserted into a forearm vein for pharmacokinetic sample collection and flushed after each blood draw with saline solution. […] Blood for malaria smears were taken by finger prick at pre-dose and at 12, 24, 30, 36, 42 and 48 hours post-dose. Malaria smears were also performed on days 7, 14 and 28.
The persistence of malaria infection and adverse events were tracked for 28 days after SP administration. Babies born from the pregnant women cohort were followed until one year of age and development assessed.
The reconstituted extracts were chromatographed isocratically and the compounds detected and quantified by mass spectroscopy.
Concentrations below the lower limit of quantification were assigned a value of zero.
The ratio of the AUC during pregnancy to the AUC at postpartum (after log transformation) was considered a measure of the impact of pregnancy on systemic exposure. […] The "no effect" interval was selected based on the dose-ranging study by Angus and coworkers. […] Statistical analyses were performed using SAS/STAT software, version 9.2 (SAS Institute, Inc., Cary, NC, 2008). […] Spearman correlations were used to look for associations among the pregnant and control population. All p-values were 2-sided.

Plasmodium falciparum [1] = assay: Pharmacodynamics of AS: parasitaemia on malaria smears after dosing; format: in vivo; settings: for Parasitaemic - n (%) / Parasite density (where > 0): 12 hours after 200 mg oral AS
Protocol: To determine if women met the eligibility criteria, a complete medical history and physical examination was performed by a study physician; sociodemographic data was collected by a study nurse. Haematocrit was measured using a microhaematocrit centrifuge (Hawksley Haematospin 1400, Hawksley & Sons, Ltd, UK). Thick and thin blood films were stained with Giemsa and then read to determine parasite species and the density of P. falciparum asexual stages. Parasite density, based on examination of at least 200 high-power microscope fields, was calculated as (# trophozoites/#white blood cells)*6000. Human Immunodeficiency Virus (HIV) serology was determined using the Determine 1/2 HIV Test Kit (Inverness Medical Professional Diagnostics, Princeton, NJ). Liver function was assessed by measuring aspartate aminotransferase (AST) and alanine aminotransferase (ALT) in plasmaPiccolo Portable Chemistry Analyser, Abaxis, USA). Alpha-1-Acid glycoprotein was determined in serum samples using radial immunodiffusion (Kent Laboratories, Bellingham, WA, USA). […]

[2] = set-up: species or system human; settings: in vivo
Protocol: To determine if women met the eligibility criteria, a complete medical history and physical examination was performed by a study physician; sociodemographic data was collected by a study nurse. Haematocrit was measured using a microhaematocrit centrifuge (Hawksley Haematospin 1400, Hawksley & Sons, Ltd, UK). Thick and thin blood films were stained with Giemsa and then read to determine parasite species and the density of P. falciparum asexual stages. […] Human Immunodeficiency Virus (HIV) serology was determined using the Determine 1/2 HIV Test Kit (Inverness Medical Professional Diagnostics, Princeton, NJ). Liver function was assessed by measuring aspartate aminotransferase (AST) and alanine aminotransferase (ALT) in plasmaPiccolo Portable Chemistry Analyser, Abaxis, USA). Alpha-1-Acid glycoprotein was determined in serum samples using radial immunodiffusion (Kent Laboratories, Bellingham, WA, USA).

Plasmodium falciparum [3] = settings: sigmoid Emax pharmacodynamic model of PCT; cited from earlier work
[4] = artesunate 4 mg/kg with Malarone, final day of three day course; second and third trimester pregnant women, Thailand; 90% range 0.9-60.7; cited from earlier work
[5] = female, human, plasma, po, 200 mg, 200 mg oral AS, ante-partum pregnant cases, median [range]
[6] = female, human, plasma, po, 200 mg, 200 mg oral AS, non-pregnant controls, median [range]
[7] = female, human, plasma, po, 200 mg, 200 mg oral AS, post-partum (3 months), median [range]

range of AS AUCs among the subjects (clinical; female, human, in vivo, po, 200 mg): more than 17 fold
AUC (clinical; female, human, in vivo, po, 200 mg, median AS AUC): 205 ng·h/mL
pregnancy outcome [2]: singleton live births
SMILES: C[C@H]1[C@H](OC(=O)CCC(=O)O)O[C@@H]2O[C@@]3(C)CC[C@H]4[C@H](C)CC[C@@H]1[C@@]24OO3 [AS, artesunate]
aparasitaemic at 12 hours among those parasitaemic at t = 0 (Plasmodium falciparum [1]; 200 mg oral AS, 13 of the 14 non-pregnant controls): 93%
aparasitaemic at 12 hrs among those parasitaemic at t = 0 (Plasmodium falciparum [1]; 200 mg oral AS, 21 of the 24 pregnant women): 87.5%
Parasitaemic - n (%) (Plasmodium falciparum [1]; all pregnant cases, N 26): 3 (11.5)
Parasite density (where > 0) (Plasmodium falciparum [1]; all pregnant cases, median (interquartile range)): 87 (44 - 286) parasites/μL
Parasitaemic - n (%) (Plasmodium falciparum [1]; non-pregnant controls, N 25): 1 (4.0)
Parasite density (where > 0) (Plasmodium falciparum [1]; non-pregnant controls, median): 24 -- parasites/μL
Parasitaemic - n (%) (Plasmodium falciparum [1]; pregnant cases Window 1 (22-26 wks GA), N 13): 3 (23.1)
Parasite density (where > 0) (Plasmodium falciparum [1]; pregnant cases Window 1, median (interquartile range)): 87 (44 - 286) parasites/μL
Parasitaemic - n (%) (Plasmodium falciparum [1]; pregnant cases Window 2 (32-36 wks GA), N 13): 0 (0)
efficacy (in words) (Plasmodium falciparum [1]; single 200 mg oral dose of AS, second and third trimester pregnant women): effective; also recorded: rapid clearance of parasitaemia
infant development at one year of age [2]: normal physical and neurological development
Hill slope coefficient (Plasmodium falciparum [3]): 10

median free AUC for DHA in pregnant women as percentage of non-pregnant controls (clinical; 200 mg oral AS): 79%
median total AUC for DHA in pregnant women as percentage of non-pregnant controls (clinical; 200 mg oral AS): 62%
DHA AUCall (clinical; 200 mg oral AS, ante-partum pregnant cases, median [range]): 1730.5 [1034.7 - 4085.5] ng*h/mL
DHA T½ (clinical; 200 mg oral AS, non-pregnant controls, median [range]): 1.41 [0.86 - 6.55] h
AUC (clinical; female, human, plasma, po, 200 mg, DHA AUCall, 200 mg oral AS, ante-partum pregnant cases, median [range]): 1730 ng·h/mL
AUC (clinical; female, human, plasma, po, 200 mg, DHA AUCall, 200 mg oral AS, non-pregnant controls, median [range]): 2790 ng·h/mL
AUC (clinical; female, human, plasma, po, 200 mg, DHA AUCall, 200 mg oral AS, post-partum (3 months), median [range]): 2120 ng·h/mL
CL/F (clinical; [5]): 23.2 mL/min/kg
CL/F (clinical; [6]): 17.8 mL/min/kg
CL/F (clinical; [7]): 21 mL/min/kg
Cmax (clinical; female, human, plasma, po, 200 mg, DHA Cmax, 200 mg oral AS, ante-partum pregnant cases, median [range]): 905 ng/mL
Cmax (clinical; female, human, plasma, po, 200 mg, DHA Cmax, 200 mg oral AS, non-pregnant controls, median [range]): 1280 ng/mL
Cmax (clinical; female, human, plasma, po, 200 mg, DHA Cmax, 200 mg oral AS, post-partum (3 months), median [range]): 980 ng/mL
fraction unbound (clinical; [5]): 0.21
fraction unbound (clinical; [6]): 0.18
fraction unbound (clinical; [7]): 0.19
Tmax (clinical; [5]): 1.5 h
Tmax (clinical; [6]): 1.52 h
Tmax (clinical; [7]): 1.5 h
half-life (clinical; [5]): 76.8 min
half-life (clinical; [7]): 97.8 min
Vd/F (clinical; [5]): 157 L and 2.84 L/kg
Vd/F (clinical; [6]): 128 L and 2.45 L/kg
Vd/F (clinical; [7]): 158 L and 3 L/kg
Cmax (clinical; female, human, plasma, po, 200 mg, median DHA Cmax, 200 mg oral AS, non-pregnant control group): 1280 ng/mL
Cmax (clinical; female, human, plasma, po, 200 mg, median DHA Cmax, 200 mg oral AS, pregnant group): 905 ng/mL
SMILES: C[C@H]1[C@@H](O)O[C@@H]2O[C@@]3(C)CC[C@H]4[C@H](C)CC[C@@H]1[C@@]24OO3 [DHA, dihydroartemisinin]
median DHA Vd/F [4]: 3.4 L/kg
